The results in this text go back to US8372408B2, “Use of Phaeodactylum algae extract for depigmenting the skin” (LVMH Recherche, priority 2007, dated 2013).

Residues, ends and D or L forms follow the SMILES beside them. *: point of attachment. Cbz = O=C(OCc1ccccc1)*

Assay [1] has as its target T1, proteasome (post-glutamic hydrolase activity) of MNT1 cells (Homo sapiens, UniProt P28072).
T1 construct: introduce in duplicate a fixed volume of cell lyzate; endogenous in cells; host or cells: MNT1 human melanocyte line (lysate)
T1 sequence (P28072 1-239): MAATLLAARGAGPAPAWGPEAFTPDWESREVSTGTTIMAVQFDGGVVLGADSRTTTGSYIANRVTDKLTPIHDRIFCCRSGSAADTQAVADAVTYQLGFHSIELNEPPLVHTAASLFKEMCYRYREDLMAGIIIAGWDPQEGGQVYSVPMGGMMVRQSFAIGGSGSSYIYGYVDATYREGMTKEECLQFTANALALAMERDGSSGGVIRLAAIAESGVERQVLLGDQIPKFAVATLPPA
Kind of assay: Proteasome LLE (post-glutamic hydrolase) activity assay on lyzates of treated MNT1 cells. The conditions noted are these: for Proteasome activity at 72 hours, Post-glutamic hydrolase: MNT1 cells lyzed 72 hours after treatment, palmitic or linoleic acid 25 μM, Phaeodactylum 5 μg/ml, Mg132 120 nM where stated; for post-glutamic hydrolase peptidase activity of the proteasome, change in words: 72 hours after addition, MNT-1 melanocytes, FIG. 1B. Format: cell-based. The protocol: 2.1 Treatment of MNT1 Cells (Human Melanocyte Cell Lines) in Order to Assay the Proteasome and Tyrosinase Activities
MNT1, 10^6 cells/dish 35 mm in diameter, in triplicate
Treatment on D1 • Linoleic acid 25 μM • Palmitic acid 25 μM • Phaeodactylum 5 μg/ml
+1% BSA+Vitamin E 50 μM+Vitamin C 1 mM • Linoleic acid 25 μM • Palmitic acid 25 μM • Phaeodactylum 5 μg/ml
Stirring with a magnetic bar at 37° C. for 1 hour • 2nd treatment on D4
+Cycloheximide 1 μg/ml (protein synthesis inhibitor)
+120 nM Mg132 for the assay of the tyrosinase activity. • Preparation of the lyzates after 4 hours
2 rinses with PBS (phosphate-buffered saline)
(§1) On a bed of ice; recovery in 150 μl of lysis buffer by scraping.
Freezing at ±20° C. • Protein assay via the Bradford method • Proteasome activity assay
(§2) The cells are rinsed twice with PBS and each peptidase activity of the proteasome is then determined by using a fluorogenic peptide substrate specific for each of the activities, in the presence and in the absence of a specific proteasome inhibitor, MG 132 (Leu-Leu-Leucinal). The peptide substrate products are the following: Leu-Leu-Val-Tyr-amc (LLVY-amc) for the chymotrypsin-like activity, Leu-Leu-Glu-na (LLE-na) for the post-glutamic hydrolase activity and Leu-Ser-Thr-Arg-amc (LSTR-amc) for the trypsin-like activity. The principle of the assay consists in monitoring over time the increase in fluorescence due to the release of the fluorophores aminomethylcoumarin or β-naphthylamine from the fluorogenic peptides.
b)—LLE Activity (Post-Glutamic Hydrolase)
The following cleavage reaction is studied: • Proteasome (LLE activity • (post-glutamic hydrolase) N-CBZ-LLE-NA→N-CBZ-LLE-+NA fluorescent
Reading on a spectrofluorimeter at an excitation wavelength of 333 nm and an emission wavelength of 410 nm.
The process is performed as follows: • In a 96-well plate, introduce in duplicate a fixed volume of cell lyzate (determined from the lowest protein concentration of the samples, which should correspond to 20 μg of protein) and make up to 100 μl with TRIS buffer. • Add 100 μl of LLE-NA substrate prediluted to 300 μM in the TRIS buffer (150 μM final). • Take the spectrofluorimeter readings at an excitation wavelength of 340 nm and an emission wavelength of 410 nm at a gain of 83 every 2 minutes, for 35 minutes.
The raw results are expressed in F.U./min.
The assay is performed on 200 μl of reaction volume containing a volume V of cell lyzate set as a function of the protein concentrations of the lyzates.
From the calibration range, the activity may be expressed in pmol of MCA released/minute/mg of protein:
(§3) For the assay of the proteasome activities, the cells were lyzed at 72 hours after the cell treatment, and the protein concentration was determined.

The target in assay [2] is T2, proteasome (trypsin-like activity) of MNT1 cells (Homo sapiens, UniProt Q99436).
T2 construct: introduce in duplicate a fixed volume of cell lyzate; endogenous in cells; host or cells: MNT1 human melanocyte line (lysate)
T2 sequence (Q99436 44-277): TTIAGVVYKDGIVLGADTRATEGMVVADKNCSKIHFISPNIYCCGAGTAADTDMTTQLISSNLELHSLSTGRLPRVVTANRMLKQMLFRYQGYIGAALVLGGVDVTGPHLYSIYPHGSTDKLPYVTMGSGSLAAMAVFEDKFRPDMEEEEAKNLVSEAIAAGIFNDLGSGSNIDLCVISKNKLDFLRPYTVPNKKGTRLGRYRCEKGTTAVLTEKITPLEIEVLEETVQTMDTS
As to the kind of experiment: Proteasome LSTR (trypsin-like) activity assay on lyzates of treated MNT1 cells. Format: cell-based. The conditions noted are these: for Proteasome activity at 72 hours, Trypsin-like: MNT1 cells lyzed 72 hours after treatment, palmitic or linoleic acid 25 μM, Phaeodactylum 5 μg/ml, Mg132 120 nM where stated. The protocol: 2.1 Treatment of MNT1 Cells (Human Melanocyte Cell Lines) in Order to Assay the Proteasome and Tyrosinase Activities MNT1, 10^6 cells/dish 35 mm in diameter, in triplicate
Treatment on D1 • Linoleic acid 25 μM • Palmitic acid 25 μM • Phaeodactylum 5 μg/ml +1% BSA+Vitamin E 50 μM+Vitamin C 1 mM • Linoleic acid 25 μM • Palmitic acid 25 μM • Phaeodactylum 5 μg/ml Stirring with a magnetic bar at 37° C. for 1 hour • 2nd treatment on D4 +Cycloheximide 1 μg/ml (protein synthesis inhibitor)
+120 nM Mg132 for the assay of the tyrosinase activity. • Preparation of the lyzates after 4 hours 2 rinses with PBS (phosphate-buffered saline)
as §1
as §2, with “Freezing at […]. • Protein assay via the Bradford method • Proteasome activity assay The cells” for “The cells”, “fluorogenic peptides. […]” for “fluorogenic peptides.”
Proteasome (LSTR Activity (Trypsin-Like)) Nt Boc LSTR-MCA→Nt Boc LSTR+MCA fluorescent Reading on a spectrofluorimeter at an excitation wavelength of 350 nm and an emission wavelength of 440 nm. c.4—Assay of the LSTR Activity • In a 96-well plate, introduce in duplicate a fixed volume of cell lyzate (determined from the lowest protein concentration of the samples, which should correspond to 50 μg of protein) and make up to 100 μl with TRIS buffer. • Add 100 μl of LSTR-MCA substrate prediluted to 80 μM in the TRIS buffer (40 μM final). • In parallel, check that it is indeed the proteasome activity by testing the inhibitor Mg132. • Add to 50 μg of protein 10 μl of solution of Mg132 prediluted to 400 μM in the TRIS buffer (20 μM final) and make up to 100 μl with TRIS buffer. Next, add 100 μl of LSTR substrate prediluted to 80 μM in the TRIS buffer (40 μM final). • Take the spectrofluorimeter readings at an excitation wavelength of 355 nm and an emission wavelength of 460 nm at a gain of 30, every 2 minutes, for 30 minutes.
The raw results are expressed in F.U./min. […]
as §3

`CC(C)C[C@@H](C=O)NC(=O)[C@H](CC(C)C)NC(=O)[C@H](CC(C)C)NC(=O)OCc1ccccc1` [Control + Mg132, Z-Leu-Leu-Leu-CHO] (Cbz-Leu-Leu-Leu-aldehyde): in assay [1], the “Proteasome activity at 72 hours, Post-glutamic hydrolase” value is listed as 42 ± 5 nmol/min/mg. In addition, in assay [2], the “Proteasome activity at 72 hours, Trypsin-like” value was 627 ± 282 pmol/min/mg.
On to `CCCCC/C=C\C/C=C\CCCCCCCC(=O)O` [Linoleic acid], for which, in assay [1], the “post-glutamic hydrolase peptidase activity of the proteasome, change in words” value is “increase and do so significantly”; the “Proteasome activity at 72 hours, Post-glutamic hydrolase” value is given as 78 ± 3.6 nmol/min/mg. Moreover, in assay [2] (72 hours after addition, MNT-1 melanocytes, FIG. 1C), the “trypsin-like peptidase activity of the proteasome, change in words” value was “increase and do so significantly”. Besides, the “Proteasome activity at 72 hours, Trypsin-like” value in assay [2] came to 2848 ± 424 pmol/min/mg.
Turning to `CCCCCCCCCCCCCCCC(=O)O` [Palmitic acid], in assay [1], the “post-glutamic hydrolase peptidase activity of the proteasome, change in words” value is “reduced” and the “Proteasome activity at 72 hours, Post-glutamic hydrolase” value stood at 54 ± 6 nmol/min/mg. Further, the “Proteasome activity at 72 hours, Trypsin-like” value in assay [2] is 1998 ± 261 pmol/min/mg.
